Measured values as given in patent US11266626B2, “Reduction of ER-MAM-localized APP-C99 and methods of treating alzheimer's disease” (THE TRUSTEES OF COLUMBIA UNIVERSITY IN THE CITY OF NEW YORK, priority 2015, dated 2022).
Entries after “also recorded” stand apart in the source; their conditions may differ.

Tests used:
PS-DKO cells [1] = test: Staining of lipid droplets with LipidTox Green; format: cell-based, mouse; conditions: BI 100 nM, desipramine 10 μM, GW4869 5 μM, 12-16 h, Gleevec 10 μM
Experimental: (§1) Quantification of total cholesterol and cholesteryl esters was performed using the Cholesterol/Cholesteryl Ester Quantitation kit from Calbiochem (428901). Staining of lipid droplets Staining of lipid droplets was performed using HCS LipidTox™ Deep Green neutral lipid stain (Invitrogen H34475) according to the manufacturer's instructions. Lipid droplet staining was quantified using ImageJ. The different values represent the product of the intensity and the area covered by the fluorescent signal above background in every cell examined.
(§2) Staining of lipid droplets was performed using HCS LipidTox™ Deep Green neutral lipid stain (Invitrogen H34475) according to the manufacturer's instructions. Lipid droplet staining was quantified using ImageJ. The different values represent the product of the intensity and the area covered by the fluorescent signal above background in every cell examined.

[2] = tested on: cortical neurons and astrocytes from PS1-KI M146V mice; test: Staining of lipid droplets with LipidTox Green; format: cell-based, mouse; conditions: 100 nM BI
Experimental: as §1, §2

[3] = tested on: fibroblasts from AD patients; test: Staining of lipid droplets with LipidTox Green; format: cell-based, human; conditions: 100 nM BI
Experimental: as §1, §2

PS-DKO cells [4] = test: Conversion of fluorescent sphingomyelin to ceramide in mitochondrial membranes (TLC); format: cell-based, mouse; conditions: PS-DKO (presenilin-mutant) cells; BI
Experimental: SMase activity was therefore measured in MEFs lacking APP and APLP2 (APP-DKO) (28). […] To test this, SMases was measured in PSDKO cells treated with α- and β-secretase inhibitors, to abrogate the production of C83 and C99, respectively. As controls, the γ-secretase products Aβ and AICD were also added back (FIG. 9G). […] For corroboration in vivo, PS-DKO and control cells were incubated with a fluorescent analog of sphingomyelin and analyzed its conversion to ceramide.
To explore this further, PS-DKO and control cells were incubated with a fluorescent sphingomyelin (FL-SM) and its localization and conversion to ceramide in mitochondrial membranes was analyzed by thin-layer chromatography (TLC).
To explore this further, we incubated PS-DKO and control cells with fluorescent sphingomyelin and analyzed its localization and conversion to ceramide in mitochondrial membranes by thin-layer chromatography (TLC).

FAD fibroblasts = test: Seahorse analysis of mitochondrial respiration (OCR); format: cell-based, human; conditions: FAD patient fibroblasts; BI
Experimental: (§3) Respirometry of cultured cells was performed using the XF24e Extracellular Flux Analyzer (Seahorse Bioscience). Oxygen consumption was measured in basal conditions (Seahorse media with 25 mM glucose and 2 mM pyruvate) and after the sequential addition of 1 μM oligomycin (Complex V inhibitor), 0.75 μM FCCP (uncoupler) and 1 μM rotenone/1 μM antimycin A (Complex I and Complex III inhibitors respectively).
(§4) Respirometry of cultured cells was performed using the XF24e Extracellular Flux Analyzer (Seahorse Bioscience). Oxygen consumption was measured in basal conditions (Seahorse media with 25 mM glucose and 2 mM pyruvate) and after the sequential addition of 1 μM oligomycin (complex V inhibitor), 0.75 μM FCCP (uncoupler), and 1 μM rotenone/1 μM antimycin A (complex I and complex III inhibitors, respectively). All results were averages of five or more biological replicates. Every biological replicate consisted of three technical replicates. For every technical replicate, we plated equal number of cells (25,000 cell/well when MEFs were used, and 50,000 cells/well when human primary fibroblasts were analyzed). The number of cells was also counted after every respirometry assay to correct for cell death. All oxygen consumption (OCR) data were normalized by the number of viable cells or by protein quantity when isolated mitochondria were used.

PS-DKO MEFs = test: Uptake of Bodipy-labeled fluorescent cholesterol; format: cell-based, mouse
Experimental: To measure uptake of fluorescent cholesterol, cultured cells were incubated with 1 μM Bodipylabeled cholesterol (Avanti Lipids; 810255P) for 12 h. Alternatively, Bodipy-cholesterol was complexed with methyl-β-cyclodextrin at a 1:10 molar ratio of sterol:cyclodextrin and added to cultured cells to a final concentration of 25 μg/ml for 6-8 h. Cholesterol droplets were visualized by microscopy and fluorescence was quantified by ImageJ.

SH-SY5Y cells [5] = test: Staining of lipid droplets with LipidTox Green; format: cell-based, human; conditions: DAPT 10 μM alone or with BI 100 nM
SH-SY5Y cells [6] = test: Seahorse analysis of mitochondrial respiration (OCR); format: cell-based, human; conditions: 10 μM DAPT vs untreated
Experimental: as §3, §4

APP-DKO cells = test: as above; format: cell-based, mouse; conditions: APP-DKO cells expressing C99; DAPT added
Experimental: as §3
(§5) To analyze the effect of Aβ addition, a mix of Aβ40/Aβ42 at a ratio 10:1 was added to the cultured cells to a final concentration of 6000 pg/ml for 24 h. For Aβ42 oligomer formation, 5 mM of Aβ42 in DMSO was diluted to 100 μM in ice-cold media, vortexed for 30 seconds, and incubated at 4° C. for 24 h. Aβ42 Oligomers were added to the cultured cells to a final concentration of 5 or 10 μM for 24 h.
as §4
as §5, with “6,000” for “6000”, “s,” for “seconds,”, “Aβ42 Oligomers were added to the cultured cells to a final concentration of 5 or 10 μM for 24 h.” left out

SMILES	number of lipid droplets (LDs) (PS-DKO cells [1])	number of lipid droplets (LDs) [2]	number of lipid droplets (LDs) [3]	increase in ceramide derived from fluorescent sphingomyelin at mitochondria (PS-DKO cells [4])	mitochondrial respiration (OCR) (FAD fibroblasts)	uptake of Bodipy-labeled fluorescent cholesterol (PS-DKO MEFs)	accumulation of lipid droplets (LDs) (SH-SY5Y cells [5])	mitochondrial respiration (OCR) (SH-SY5Y cells [6])	mitochondrial respiration (OCR) (APP-DKO cells)
C[C@@H](NC(=O)c1cc(C(=O)N[C@@H](Cc2ccccc2)[C@H](O)CNC2CC2)cc(N(C)S(C)(=O)=O)c1)c1ccccc1 [BI, β-secretase inhibitor IV]	reduced the number of LDs	reduced the number of LDs	reduced the number of LDs	this increase disappeared; also recorded: the elevated deposition of ceramide at mitochondria disappeared	reversed the defect in mitochondrial respiration; also recorded: rescued the respiration defects	reduced uptake	–	–	–
C[C@H](NC(=O)Cc1cc(F)cc(F)c1)C(=O)N[C@H](C(=O)OC(C)(C)C)c1ccccc1 [DAPT]	–	–	–	–	–	–	LDs also accumulated; also recorded: Lipid droplets also accumulated	significant decrease in respiration; also recorded: significant reduction in respiration	accentuated
